Among the data in the supplement of paper PMC10307832 are relative viability values, retold here.

What all share (test): relative viability (nuclei count vs DMSO), 5 days (fraction); higher = more cells survive
Compound in the test “Adavosertib + Linsitinib”: C=CCn1c(=O)c2cnc(Nc3ccc(N4CCN(C)CC4)cc3)nc2n1-c1cccc(C(C)(C)O)n1 [Adavosertib] + C[C@]1(O)C[C@@H](c2nc(-c3ccc4ccc(-c5ccccc5)nc4c3)c3c(N)nccn32)C1 [Linsitinib] (partner 1 µM)
The procedure, abridged: (§1)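 Relative viability equals treated-well nuclei counts divided by vehicle-well nuclei counts. Counts came from 4× images of lung cancer cell lines grown in 1536-well plates for 5 days after pin-tool dosing on the day after seeding. Dosing used one drug alone or a fixed anchor-drug dose plus five library-drug doses (not always all listed) in √10 steps, and values are medians of duplicate plates.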

Compound in the test “Adavosertib + Lapatinib”: C=CCn1c(=O)c2cnc(Nc3ccc(N4CCN(C)CC4)cc3)nc2n1-c1cccc(C(C)(C)O)n1 [Adavosertib] + CS(=O)(=O)CCNCc1ccc(-c2ccc3ncnc(Nc4ccc(OCc5cccc(F)c5)c(Cl)c4)c3c2)o1 [Lapatinib] (partner 2 µM)
The procedure, abridged:
as §1

Compound in the test “Nelarabine + AZD7762”: COc1nc(N)nc2c1ncn2[C@@H]1O[C@H](CO)[C@@H](O)[C@@H]1O [Nelarabine] + NC(=O)Nc1cc(-c2cccc(F)c2)sc1C(=O)N[C@H]1CCCNC1 [AZD7762] (partner 0.2 µM)
The method, boiled down: as §1

Compound in the test “Nelarabine + Linsitinib”: COc1nc(N)nc2c1ncn2[C@@H]1O[C@H](CO)[C@@H](O)[C@@H]1O [Nelarabine] + C[C@]1(O)C[C@@H](c2nc(-c3ccc4ccc(-c5ccccc5)nc4c3)c3c(N)nccn32)C1 [Linsitinib] (partner 1 µM)
The procedure, abridged:
as §1

As to EMC-BAC-2, the relative viability came out at 0.823 with Adavosertib + Linsitinib (first compound 0.01 µM); 0.798 with Adavosertib + Linsitinib (first compound 0.03162 µM); 0.862 with Adavosertib + Linsitinib (first compound 0.1 µM); 0.751 in the test with Adavosertib + Linsitinib (first compound 0.3162 µM); 0.882 with Adavosertib + Lapatinib (first compound 0.01 µM); 0.869 with Adavosertib + Lapatinib (first compound 0.03162 µM). The relative viability in the test with Adavosertib + Lapatinib (first compound 0.1 µM) was found to be 0.927; with Adavosertib + Lapatinib (first compound 0.3162 µM) it was 0.978; with Nelarabine + AZD7762 (first compound 0.01 µM), 1.2; in the test with Nelarabine + AZD7762 (first compound 0.03162 µM), 1.1; with Nelarabine + AZD7762 (first compound 0.1 µM), 1.18; in the test with Nelarabine + AZD7762 (first compound 0.3162 µM), 1.22. For the same cell line, the relative viability in the test with Nelarabine + AZD7762 (first compound 1 µM) came to 1.17; with Nelarabine + Linsitinib (first compound 0.01 µM), 0.958; with Nelarabine + Linsitinib (first compound 0.03162 µM) it was 0.781; in the test with Nelarabine + Linsitinib (first compound 0.1 µM), 0.83; with Nelarabine + Linsitinib (first compound 0.3162 µM), 0.831; with Nelarabine + Linsitinib (first compound 1 µM) it was 0.859.
